# Test results reported in publication PMC12040169 (PLOS Biology, 2025).
# Assay: in vitro
# Conditions: human, hela cells, % viability
SMILES,"viability at 28.5 h, 10 µM","viability at 28.5 h, 10 µM (bulk resorufin, single well)"
CSCCCNC(=O)c1cc(-c2ccc(C(=O)N3CCOCC3)cc2)cnc1N [CBK158568],95.5%,–
O=[N+]([O-])c1ccc(CN2CCC(Oc3cncc(OCc4ccc(Cl)c(Cl)c4)n3)C2)cc1 (stereo not drawn) [CBK084426],97.1%,–
Cc1cc2ccccc2n2c(=O)n(CC(=O)N3CCCCC3C)nc12 (stereo not drawn) [CBK283882],87.1%,–
CCCCN(C(=O)CC1SC(NC2CCCCCC2)=NC1=O)c1ccccc1 (stereo not drawn) [CBK067392],92.4%,–
COc1cc(-c2cnc(N)c(N[C@H](CO)C(C)C)n2)cc(OC)c1OC [CBK063765],113%,–
Cc1c([N+](=O)[O-])c([N+](=O)[O-])nn1CC(=O)NCc1cccnc1 [CBK262428],–,97.2%
O=c1[nH]c2ncc(-c3ccco3)nc2n1Cc1ccc(F)c(Cl)c1 [CBK064393],108%,–
Cc1cc(C)n(CC2CCCN2C(=O)CCCc2ccccn2)n1 (stereo not drawn) [CBK305920],105%,–
COCC(C)NC(=O)c1nn(-c2nc3ccccc3s2)c2ccccc12 (stereo not drawn) [CBK048488],92.6%,–
Cc1cccnc1C(Cc1ccsc1)NC(=O)Cn1ccnc1 (stereo not drawn) [CBK284802],94.1%,–
c1coc(-c2nnc(Nc3nc4cc5c(cc4s3)OCO5)o2)c1 [CBK287492],89.8%,–
O=C(Cn1cc(-c2ccc(CN3CCOCC3)cc2)nn1)NCc1cccc(C(F)(F)F)c1 [CBK165803],87.5%,–
CCOC(=O)CS(=O)(=O)Cc1cc(Cl)nc(Cl)c1 [CBK005544],109%,–
CC1=CCCN(C(=O)C23CCOCC2CN(c2ncccn2)C3)C1 (stereo not drawn) [CBK304743],101%,–
Cc1noc(C)c1NC(=O)N(Cc1ccc(-c2ccccc2)cc1)CC1CCNCC1 [CBK056721],100%,–
COc1ccc(Cl)cc1N1CCN(CC(=O)Nc2ccc(F)c(Cl)c2)CC1 [CBK126417],101%,–
Cc1nn(C)cc1CN(Cc1ccc(F)cc1)CC1CCCO1 (stereo not drawn) [CBK282472],98.5%,–
Cc1cn(-c2ccc(Br)cc2)[nH]c1=O [CBK288513],92.7%,–
CCCCC(=O)NC(c1ccccc1OC)c1cc(Cl)c2cccnc2c1O (stereo not drawn) [CBK110947],84.4%,–
O=c1cc(N2CCOCC2)oc2ccccc12 [CBK008244G],71.5%,–
CC1CCC(N(CCCN)Cc2ccco2)CC1C (stereo not drawn) [CBK268947],95.6%,–
Cc1ccc(S(=O)(=O)Nc2ccc(C(=O)O)cc2)cc1[N+](=O)[O-] [CBK034055],94.8%,–
CSc1nc(NN2C(=O)c3ccccc3C2=O)c2c3c(sc2n1)COC(C)(C)C3 [CBK268758],85.6%,–

SMILES,"viability at 28.5 h, 10 µM","viability at 28.5 h, 10 µM (bulk resorufin, single well)"
Cc1nc2[nH]c(=O)nc(N)c2nc1C [CBK025658],83.3%,–
CCN1CC2(CCN(CC3CC3)CC2)c2ccccc21 [CBK136987],92.6%,–
O=C(CCN1CCOCC1)N/N=C\c1cccs1 [CBK005035],90.6%,–
CN1[C@@H](CCC(=O)N2CCN(c3ccccn3)CC2)CNC(=O)[C@H]2NCC[C@H]21 [CBK289031],95.2%,–
O=S(=O)(NCc1cccc(F)c1F)c1cc2c(N3CCNCC3)nccc2s1 [CBK047588C],103%,–
Cc1cccc(CN(CC(=O)Nc2ccc(F)cc2F)S(=O)(=O)c2ccc(Cl)cc2)c1 [CBK265164],84.9%,–
CC1(OCCCN2CCCCC2)SC(NC2CC3CCC2C3)=NC1=O (stereo not drawn) [CBK115611],87.2%,–
COc1ccc(NC(=O)C(C)Sc2nc(N)cc(O)n2)cc1 (stereo not drawn) [CBK265699],106%,–
CCOC(=O)Cn1[nH]c(CO)c(Cc2c(Cl)cccc2Cl)c1=O [CBK103580],92.2%,–
Cc1nc(CC(=O)O)c(-c2ccccc2)s1 [CBK264988],110%,–
Fc1ccc(-c2noc([C@@H]3CCCN3Cc3ncc[nH]3)n2)nc1 [CBK288897],102%,–
CN(C)C(=O)C1(Cc2ccc(-c3cccs3)cc2)CCN(C(=O)Cc2ccccc2)CC1 [CBK285784],93.2%,–
Cc1nc(SCC(=O)N2CCC(C)CC2)c2c3c(sc2n1)CCC3 [CBK265944],86.1%,–
O=C(C1CCCC1)N1CCCC(c2cc3cccnc3[nH]2)C1 (stereo not drawn) [CBK284979],105%,–
O=C(O)/C=C/c1cn(-c2ccccc2)nc1-c1cccs1 [CBK263119],102%,–
CC(=O)Nc1ccccc1NC(=O)c1ccccc1CCc1ccccc1 [CBK268621],97.1%,–
Cc1ccc(O)c(NC(=O)c2nc3nc(C)cc(C(F)F)n3n2)c1 [CBK266186],99.6%,–
Nc1ncc(-c2ccc(Cl)cc2)nc1-c1ccc(CCC(=O)O)cc1 [CBK064063],92.9%,–
CC(=O)Nc1c(O)nc(SCC(=O)Nc2ccc(C(C)=O)cc2)[nH]c1=O [CBK268527],106%,–
c1ccc(CN2CC[C@H](c3nnc(-c4cccnc4)o3)C2)cc1 [CBK289397],85.6%,–
N#Cc1c(NC(=O)c2cc(S(=O)(=O)N3CCOCC3)c(Cl)cc2Cl)sc2c1CCCC2 [CBK263204],95.7%,–
CC(C)C(=O)N1CCC[C@@H]2NC(=O)c3ccccc3OCC/C=C/C[C@@H]21 [CBK292064],101%,–
CC(=O)Nc1cccc(CN(CCCO)c2ccccc2)c1 [CBK304833],97.1%,–

SMILES,"viability at 28.5 h, 10 µM","viability at 28.5 h, 10 µM (bulk resorufin, single well)"
COc1ccc(S(=O)(=O)Nc2cccc(C(=O)N3CCOCC3)c2)cc1OC [CBK039010],82.7%,–
Nc1nc(C2COc3ccccc3O2)ncc1S(=O)(=O)c1ccc(Cl)cc1 (stereo not drawn) [CBK074808],96.2%,–
Cc1cc(C)c2c(c1)COC1(CCNCC1)O2 [CBK061574],–,100%
[O-][n+]1c2c([n+]([O-])c3c1CCCC3)CCCC2 [CBK261714],99.5%,–
CCCn1ccnc1CN1CCCC(CC2CC2)(C(=O)O)C1 (stereo not drawn) [CBK307205],100%,–
O=C1N=C(NC2CCCC2)OC12CCN(Cc1ccccc1)CC2 [CBK115430],103%,–
CC(=O)NCc1ccc(-c2cc(CN(C)C)n(C)n2)cc1 [CBK281667],99.1%,–
Cn1nc2n(C)c(=O)c3ccc(C(=O)NC4CCCC4)cc3n2c1=O [CBK287811],113%,–
O=C(Nc1ccccc1)N1C[C@@H]2C[C@H](C1)c1c(-c3cccnc3)ccc(=O)n1C2 [CBK289193],92.3%,–
Cc1nc(-c2cccc(OC(F)F)c2)n(C2CCN(C)CC2)n1 [CBK307382],97.1%,–
Cc1cnc(CNC(=O)N2CCc3ccccc3C2)cn1 [CBK155166],97.3%,–
COc1ccc2[nH]c3c(c2c1)CCN(CCc1ccc(F)cc1)C3 [CBK082819T],92.3%,–
COc1ccc(CCNC(=O)N2CCN(CCc3ccccc3)CC2)cc1OC [CBK158915],102%,–
CCN(CC)CCNc1ncnc(N)c1[N+](=O)[O-] [CBK267287],82.8%,–
COC(=O)c1ccccc1NC(=O)CSCc1ccc(Cl)cc1Cl [CBK131712],86.2%,–
CSc1nccc(OCCOc2nccnc2N2CCNCC2)n1 [CBK000718G],104%,–
O=C(OCC#CCSc1nnc(-c2ccncc2)o1)c1sc2ccccc2c1Cl [CBK265677],94.6%,–
CC(c1ccncn1)N(C)C(=O)NCc1cccc(CN(C)C)c1 (stereo not drawn) [CBK307667],89.9%,–
O/N=C1\CC2(CCCCC2)c2ccccc21 [CBK013318],83%,–
O=C(O)c1c(Cl)c(C(=O)O)c(C(=O)O)c(Cl)c1C(=O)O [CBK261177],96.8%,–
CC(C)CN1C[C@H]2N(C)C(=O)c3ccccc3C(=O)[C@@]2(C)C1 [CBK283477],86.6%,–
CCOC(=O)Nc1ccc2c(c1)N(C(=O)CN1CCN(C)CC1)c1ccccc1CC2 [CBK278194C],88.7%,–
Cc1cnc(C(=O)NC2(c3ccc(Cl)cc3)CCC2)cn1 [CBK282775],95.2%,–

SMILES,"viability at 28.5 h, 10 µM","viability at 28.5 h, 10 µM (bulk resorufin, single well)"
CN(C)CC(=O)Nc1ccc2n(c1=O)C[C@H]1C[C@@H]2CN(Cc2ccccn2)C1 [CBK289206],107%,–
CC(C)C(NS(=O)(=O)c1ccccc1)C(=O)Nc1ccccc1 (stereo not drawn) [CBK270001],87.8%,–
CC(=O)Nc1cccc(NC(=O)N2CCN(Cc3ccccc3)CC2)c1 [CBK155643],98%,–
COc1ccc2occ(C(=O)c3ccc(N)cc3)c2c1 [CBK111303],81.8%,–
Cc1cc2c(s1)c1cnn(CC(=O)NC(C)C)c(=O)c1n2C [CBK284155],79.7%,–
O=C(c1cscn1)N1CCC2(CCCNC2)C1 (stereo not drawn) [CBK153230C],97%,–
Nc1ccc(-c2ccc(OC(F)(F)F)cc2)c2ccccc12 [CBK084327],84.6%,–
CC(C)(C)c1cc(C[C@H]2CNCC[C@H]2CC(=O)N2CCN(c3ccc(F)cc3)CC2)no1 [CBK288800],94.8%,–
CC(C)[C@H]1CN(Cc2ccco2)CCN1C(=O)c1cscn1 [CBK285490],99.6%,–
CN(C)C1=NC(N(C)C)=NP(N(C)C)(N(C)C)=N1 [CBK261057],91.8%,–
O=C(O)CN(c1ccc(F)cc1)S(=O)(=O)c1ccc2c(c1)OCCO2 [CBK287096],84.1%,–
COc1cccc(CC(=O)NCC(c2cccs2)N2CCOCC2)c1 (stereo not drawn) [CBK305621],95.9%,–
NCC(=O)Nc1ccc(Cl)c(Cl)c1 [CBK046317],94.3%,–
COc1cnc(-c2cnn(C)c2)c(NC(=O)C2CC2)n1 [CBK145328],104%,–
O=C(O)C1CCN(Cc2ccc(Cl)cc2)CC1 [CBK286895],89.3%,–
COc1nc(-c2cccnc2)cn2ccnc12 [CBK093490],82.1%,–
COc1ccc(NC(=N)Nc2nc(=O)cc(CSc3nc4ccccc4s3)[nH]2)cc1 [CBK266256],101%,–
CCCc1ccc(S(=O)(=O)N2CCOC(c3cnn(CC)c3)C2)cc1 (stereo not drawn) [CBK306169],83.4%,–
CC(C)Nc1cccnc1N1CCN(C(=O)c2cc3cc(NS(=O)(=O)CCc4ccncc4)ccc3[nH]2)CC1 [CBK012661],95.8%,–
COc1ccc2cc(Cn3nc(C(=O)O)c4ccccc4c3=O)c(Cl)nc2c1 [CBK295354],88%,–
CN1CCN(c2ccc(NC(=O)c3cccc(Br)c3)cc2)CC1 [CBK266140],97.5%,–
